This note sets out measurements from patent publication US20250345492A1, “AN ANTIBACTERIAL POLYPEPTIDE COMPOUND, A MEDICAL DEVICE, HYDROGEL AND USE THEREOF” (priority 2020, published 2025).

Ends that are not written are not given here. Where only a bound is given, the exact number is not on record here.

Data set [1] concerns E. coli (ATCC 25922). In words: Mouse septic peritonitis model, survival. The format is in vivo, Kunming mice. The settings on record: 20 mg/kg intraperitoneally one hour after E. coli inoculation, 7 days of observation. The method, then: The determination of the in vivo antibacterial activity of the antibacterial polypeptide compounds is to reflect the antibacterial activity in vivo by detecting the survival rate of mice infected with bacteria or fungi.
Taking compounds 2, 8, 9, 13 and 15 of the present invention as examples, the in vivo antibacterial effects of the antibacterial polypeptide compounds were analyzed. The mice used in this test were Kunming mice, which were placed in constant-temperature environment (22±1° C.). Simply, 36 Kunming mice (18-22 g of body weight) were randomly divided into 6 groups and intraperitoneally injected with 0.2 ml of 3×10^8 CFU/mL E. coli (ATCC 25922) on Day 1 to establish mouse septic peritonitis model. The mice were administered intraperitoneally one hour after inoculation with the bacteria, and then the compounds 2, 8, 9, 13 and 15 were injected intraperitoneally at a dose of 20 mg/kg of body weight. Polymyxin B (20 mg/kg) was selected as a positive reference control, and a negative control group received intraperitoneal injection of sterile saline. After 7 days of observation, the survival rates of mice in administration groups and control groups were calculated to create survival curves.

The test system of data set [2] is mouse red blood cells.
Procedure: The hemolytic activity was determined by measuring a hemolytic concentration for mouse red blood cells with the antibacterial polypeptide compounds.
The mouse red blood cells was diluted to a concentration of 8%, the obtained red blood cell suspension was added to a 96-well plate (100 μL per well), and then 100 μL of one compound was added to a corresponding well. After incubation for 1 hour, the supernatant of each well was added to another 96-well plate, and then the absorbance value of the sample supernatant was measured at 490 nm using a ELISA reader. With regard to the present invention, PBS and 2% Triton-X 100 were used as a negative control and a positive control, separately.
Data set [3] is described as follows: Acute toxicity in mice. More on the design: species or system Kunming mice. The settings on record: mouse, in vivo, ip, intraperitoneal injection, Karber method. On the procedure:
Acute toxicity of the compounds was determined by measuring the acute toxicity in mice with the compounds.
Taking compounds 2, 8, 9, 13 and 15 of the present invention as examples, […]. The mice used in this test were Kunming mice, which were placed in constant-temperature environment (22±1° C.) and could freely obtain water and food. Simply, 132 healthy Kunming mice were randomly divided into 11 groups, with 12 mice in each group (half male and half female), wherein, 5 groups were intraperitoneally injected with 0.2 ml of the compounds of different doses (100-1000 mg/kg), and the control group was intraperitoneally injected with normal saline. In this experiment, melittin was used as a reference control, and the other 5 groups were intraperitoneally injected with melittin of different doses (10-32 mg/kg). The state of mice was observed and recorded after 2 hours of administration, and then observed twice a day for 14 days, and the survival rates of the mice were recorded.

For data set [4], the system named is human cervical cancer cell Hela. Put plainly: Cytotoxicity, MTT colorimetry. The format is cell-based. On the procedure:
(§1) For cytotoxicity determination, the MTT colorimetry was used to evaluate the effects of the compounds on the proliferation of human cervical cancer cell Hela, human embryonic renal epithelial cell HEK293 and mouse mononuclear macrophage RAW264.7.
(§2) Taking compounds 2, 8, 9, 13 and 15 of the present invention as examples, the cytotoxicity of the antibacterial polypeptide compounds was analyzed. Three cell lines were employed for the present invention, namely human cervical cancer cell Hela, human embryonic renal epithelial cell HEK293 and mouse mononuclear macrophage RAW264.7. Hela cells were cultured in RPMI 1640 medium with 10% newborn calf serum, HEK293 cells and RAW264.7 cells were cultured in DMEM medium with 10% fetal bovine serum. Simply, cells (1×10^4 cells/well) were inoculated to a 96-well plate and incubated in an incubator set to 5% CO2 at 37° C. After 24 hours, compounds of different concentrations were added and incubated in the 5% CO2 incubator. After 24 hours, 20 μL of MTT solution with a concentration of 5 mg/mL was added to each well and incubated for 4 hours. After that, the medium was removed with a pipet, and 150 μL of DMSO added to dissolve the purple-blue formazan crystals. The solution was shaken in an oscillator for 5 mins before detecting the absorbance value at 570 nm using the ELISA reader, and then the survival rate was calculated with the formula: (OD dosing group/OD control group)×100% (n=3).

The subject of data set [5] is mouse mononuclear macrophage RAW264.7. In words: Cytotoxicity, MTT colorimetry. The format is cell-based. On the procedure: as §1, §2
Data set [6] relates to human embryonic renal epithelial cell HEK293. In words: Cytotoxicity, MTT colorimetry. The data set is classed as cell-based. On the procedure: as §1, §2
Data set [7] deals with Staphylococcus epidermidis (ATCC 12228). The settings on record: ATCC 12228. The text has this:
(§3) With respect to the determination of antibacterial activity and antifungal activity of the antibacterial polypeptide compounds, the bacterial strains employed included: E. coli (ATCC 25922), E. coli (ATCC 43837), Pseudomonas aeruginosa (ATCC 27853), Klebsiella pneumoniae (ATCC 700603), Cronobacter sakazakii (ATCC 29544), Staphylococcus aureus (ATCC 29213), Bacillus subtilis (ATCC 23857) and Staphylococcus epidermidis (ATCC 12228); and the fungal strains employed included Candida albicans (ATCC 14053), Candida glabrata (ATCC 2001), Candida parapsilosis (ATCC 22019), Candida tropicalis (ATCC 750) and Candida krusei (ATCC 6258), all of which were standard strains from American Type Culture Collection. In addition, drug-resistant strains S-1a, S-2a, S-3a, S-4a, E-1b, E-2b, E-3b, E-4b, E-5b, P-1c, P-2c, P-3c, P-4c, P-5c, and clinically isolated fungal strains Candida glabrata 2-1 and Candida albicans 14-1, 14-2 and 14-3 were employed, all which were clinically isolated.
(§4) Simply, a proper amount of the cryopreserved bacterium or fungus was added to fresh MH/SD medium, and cultured on a shaker overnight at 180 rpm at 37° C. The obtained cells were seeded again and cultured on a shaker for 4-5 hours to obtain cells in logarithmic phase. The resulting cells were added to a 96-well plate (1×10^5 CFU/ml, 100 μL/well), and then 100 μL of polypeptide with different concentrations (1-256 μM) twice the final concentrations was added to corresponding well according to the 2-fold serial dilution method. The fresh medium was used as a negative control, which was prepared in triplicate for each concentration. After dosing, the 96-well plate was placed in an incubator at constant 37° C. and humidity for 12 hours to observe the results. According to naked eye observations, the concentration of the compound in the first transparent well following the turbid wells was recorded as the MIC of the compound, namely, the MIC value of the compound to the bacterium or fungus.

The test system of data set [8] is Cronobacter sakazakii (ATCC 29544). The settings on record: ATCC 29544.
From the text: as §3, §4

In data set [9] the test system is C. krusei ATCC6258. The settings on record: ATCC6258.
From the text: as §3, §4

In data set [10] the test system is C. parapsilosis ATCC2001. The settings on record: ATCC2001.
From the text: as §3, §4

Data set [11] concerns Bacillus subtilis (ATCC 23857). The settings on record: ATCC 23857.
From the text: as §3, §4

The test system of data set [12] is C. glabrata ATCC22019. The settings on record: ATCC22019.
From the text: as §3, §4

Data set [13] has as its system E-1b, clinical isolated drug-resistant strain ESBL. The settings on record: strain E-1b (ESBL).
From the text: as §3, §4

The subject of data set [14] is E-3b, clinical isolated drug-resistant strain ESBL. The settings on record: strain E-3b (ESBL).
From the text: as §3, §4

Data set [15] has as its system S-2a, clinical isolated drug-resistant strain MRSA. The settings on record: strain S-2a (MRSA).
From the text: as §3, §4

The test system of data set [16] is C. albicans ATCC14053. The settings on record: ATCC14053.
From the text: as §3, §4

In data set [17] the test system is E-2b, clinical isolated drug-resistant strain ESBL. The settings on record: strain E-2b (ESBL).
From the text: as §3, §4

Data set [18] relates to P-5c, clinical isolated drug-resistant strain PA. The settings on record: strain P-5c (PA).
From the text: as §3, §4

In data set [19] the test system is C. tropicalis ATCC750. The settings on record: ATCC750.
From the text: as §3, §4

Data set [20] relates to E. coli (ATCC 25922). The settings on record: ATCC 25922.
From the text: as §3, §4

The test system of data set [21] is S-4a, clinical isolated drug-resistant strain MRSA. The settings on record: strain S-4a (MRSA).
From the text: as §3, §4

Data set [22] concerns S-3a, clinical isolated drug-resistant strain MRSA. The settings on record: strain S-3a (MRSA).
From the text: as §3, §4

Data set [23] deals with P-2c, clinical isolated drug-resistant strain PA. The settings on record: strain P-2c (PA).
From the text: as §3, §4

For data set [24], the system named is P-1c, clinical isolated drug-resistant strain PA. The settings on record: strain P-1c (PA).
From the text: as §3, §4

Data set [25] relates to S-1a, clinical isolated drug-resistant strain MRSA. The settings on record: strain S-1a (MRSA).
From the text: as §3, §4

Data set [26] concerns P-3c, clinical isolated drug-resistant strain PA. The settings on record: strain P-3c (PA).
From the text: as §3, §4

Data set [27] concerns Pseudomonas aeruginosa (ATCC 27853). The settings on record: standard strain.
From the text: as §3, §4

In data set [28] the test system is Staphylococcus aureus (ATCC 29213). The settings on record: ATCC 29213.
From the text: as §3, §4

Data set [29] has as its system P-4c, clinical isolated drug-resistant strain PA. The settings on record: strain P-4c (PA).
From the text: as §3, §4

For data set [30], the system named is E-5b, clinical isolated drug-resistant strain ESBL. The settings on record: strain E-5b (ESBL).
From the text: as §3, §4

Data set [31] relates to E-4b, clinical isolated drug-resistant strain ESBL. The settings on record: strain E-4b (ESBL).
From the text: as §3, §4

Turning to Polymyxin B, the “survival rate of mice” value in [1] is on record as 100%.

Triton X-100 registered a hemolysis rate in data set [2] of 100%.

For the substance PWRLRLRL-NH2 [Compound 15], the LD50 in data set [3] was more than 1000 mg/kg. For the same substance, the “effect on proliferation (inhibitory activity)” value in [4], in data set [5] and in [6] was “no inhibitory activity” throughout. Further, in data set [7], the “MIC S. epidermidis ATCC12228” value worked out at 8 µM. In addition, the “MIC C. sakazakii ATCC29544” value in data set [8] was found to be 8 µM. In addition, the “MIC C. krusei ATCC6258” value in [9] was 16 µM. Further, in data set [10], the “MIC C. parapsilosis ATCC2001” value was found to be 4 µM. For the same substance, the “MIC B. subtilis ATCC23857” value in data set [11] amounted to 4 µM. Moreover, the “MIC C. glabrata ATCC22019” value in data set [12] is 4 µM. Further, the MIC in data set [13] amounted to 4 µM; in data set [14] it was 4 µM; in data set [15], 8 µM; in [17] it was 4 µM; in data set [18], 8 µM; in [21], 8 µM. The MIC in data set [22], in data set [23], in data set [24], in data set [25], in data set [26] and in [29] was 8 µM each time. Moreover, the MIC in data set [30] and in data set [31] was 4 µM throughout. Further, in [16], the “MIC C. albicans ATCC14053” value is 4 µM. Besides, the “MIC C. tropicalis ATCC750” value in data set [19] worked out at 4 µM. Besides, the “MIC C. coli ATCC25922” value in data set [20] came out at 4 µM. Further, the “MIC P. aerugmosa ATCC27853” value in data set [27] came to 8 µM. The “MIC S. aureus ATCC29213” value in data set [28] was 8 µM.

Substance PWRLRLHL-NH2 [Compound 13] showed an LD50 in data set [3] of more than 1000 mg/kg. For the same substance, the “effect on proliferation (inhibitory activity)” value in data set [4], in data set [5] and in data set [6] was “no inhibitory activity” throughout. In data set [7], the “MIC S. epidermidis ATCC12228” value worked out at 16 µM. Also, in data set [8], the “MIC C. sakazakii ATCC29544” value came to 8 µM. Besides, the “MIC C. krusei ATCC6258” value in data set [9] turned out to be 32 µM. In [10], the “MIC C. parapsilosis ATCC2001” value was determined as 8 µM. Further, the “MIC B. subtilis ATCC23857” value in data set [11] was 8 µM. In addition, the “MIC C. glabrata ATCC22019” value in data set [12] came to 8 µM. Also, the MIC in data set [13] stood at 8 µM; in data set [14], 4 µM; in data set [15], 32 µM; in data set [17], 8 µM; in data set [18], 4 µM; in data set [21], 32 µM. Further, the MIC in [22] turned out to be 32 µM; in data set [23] it was 4 µM; in data set [24], 8 µM; in data set [25], 32 µM; in data set [26], 4 µM; in data set [29], 4 µM. Besides, the MIC in data set [30] is 4 µM; in data set [31] it was 8 µM. For the same substance, the “MIC C. albicans ATCC14053” value in data set [16] turned out to be 32 µM. Also, in data set [19], the “MIC C. tropicalis ATCC750” value worked out at 8 µM. Moreover, the “MIC C. coli ATCC25922” value in data set [20] came to 8 µM. The “MIC P. aerugmosa ATCC27853” value in data set [27] was 4 µM. The “MIC S. aureus ATCC29213” value in [28] stood at 32 µM.

One may read the LD50 as the dose expected to kill half of the subjects tested. Low values mean greater toxicity, high ones lower toxicity. The MIC is the lowest concentration that inhibits growth of the organism. A higher MIC goes with weaker potency.
